According to PMC5141252, “In silico Screening and Evaluation of the Anticonvulsant Activity of Docosahexaenoic Acid-Like Molecules in Experimental Models of Seizures” (Iranian Biomedical Journal, 2017):
Marks after values point to notes of the source that are not given here.

How the values were obtained:
[1] = test system: clonic seizures induced by pentylenetetrazole; experiment: Pentylenetetrazole seizure test; assay type: in vivo; conditions: mice; for Protection (%): 15 min before PTZ 60 mg/kg i.p.; for ED50 (mM) and 95% CI: PTZ clonic seizures, log-Probit analysis
Method: (§1) All compounds were prepared freshly before administration. The compounds were dissolved in DMSO and then were diluted in artificial cerebrospinal fluid consisting (in mM) 124.0 NaCl, 25 NaHCO3, 10 D-glucose,4.4 KCl, 2 MgSO4, 1.25 KH2PO4, and 2 CaCl2. The final concentration of DMSO was maintained at 10%. The pH of the solutions was adjusted at the range of 7.2-7.4. Doses of the compounds were selected based on the preliminary experiments conducted in our laboratory.
(§2) DHA-like molecules were administered by intracerebroventricular (i.c.v.) route according to the method described earlier. Briefly, a 3.5-mm-long needle (27 Gauge) was connected to a 10-μL Hamilton microsyringe. The site of injection was 2 mm lateral to the midline on a line drawn through the anterior base of the ears and 3.5 mm in depth from the surface of skull skin. The solution was injected at a rate of 10 µL/10 s and the needle left in place for 60 s after injection.
Fifteen minutes after i.c.v. injection of the compounds, PTZ (60 mg/kg) was injected to the mice intraperitoneally (i.p.). This time period was selected based on the time course of DHA anticonvulsant activity in mice[6]. The occurrence of colonic seizures was monitored in animals for 30 min.
(§3) Statistical analysis was performed by SPSS for Windows software version 16.0. Data obtained from the seizure tests were expressed as percentage of the protected mice. Fisher’s exact test was used to analyze the data. The dose of the drugs that produced anticonvulsant effect in 50% of the animals (ED50), and its associated 95% confidence interval, was calculated by log-Probit analysis.

[2] = test system: tonic seizures induced by MES; experiment: Maximal electroshock seizure test; assay type: in vivo; conditions: mice; for Protection (%): 15 min before MES (50 Hz, 50 mA); for ED50 (mM) and 95% CI: i.c.v., MES tonic seizures, log-Probit analysis
Method: as §1, §2
Fifteen minutes after i.c.v. injection of the compounds, an electrical stimulus (50 Hz, 50 mA, 1 s duration) was delivered to the mice through ear-clip electrodes[6] using a stimulator apparatus (MGH-777, Development of Electronic Industry, Iran).
as §3

[3] = test system: clonic seizures induced by pentylenetetrazole; design: method as in PMID 26018398; conditions: PTZ test, mice, i.c.v administration; cited from earlier work
[4] = test system: tonic seizures induced by MES; design: method as in PMID 26018398; conditions: cited from earlier work

CCC(C(=O)O)c1ccccc1 (stereo not shown) [2-Phenylbutyric acid]
Protection (%) ([1]; dose 0.0001 M i.c.v.): 0% | Protection (%) ([1]; dose 0.001 M i.c.v.): 30% | Protection (%) ([1]; dose 0.01 M i.c.v.): 40^b % | Protection (%) ([1]; dose 0.1 M i.c.v.): 56.6^a % | ED50 (mM) and 95% CI ([1]; i.c.v.): 70.0 (25.0-144.2) mM

COc1ccc(CC(=O)O)cc1OC [3,4-Dimethoxyphenylacetic acid, 3,4-Dimethoxyphenylacetic acid]
anticonvulsant activity (in words) ([1]; PTZ and MES seizure tests, i.c.v.): inactive

O=C(O)Cc1ccc(-c2ccccc2)cc1 [4-Biphenylacetic acid]
Protection (%) ([1]; dose 0.0001 M i.c.v.): 15% | Protection (%) ([1]; dose 0.001 M i.c.v.): 35% | Protection (%) ([1]; dose 0.0075 M i.c.v.): 50% | Protection (%) ([1]; dose 0.01 M i.c.v.): 85^a % | ED50 (mM) and 95% CI ([1]; i.c.v.): 5.0 (3.0-5.0) mM

O=C(O)CCCc1ccccc1 [4-Phenylbutyric acid]
Protection (%) ([1]; dose 0.0001 M i.c.v.): 25% | Protection (%) ([1]; dose 0.001 M i.c.v.): 50^b % | Protection (%) ([1]; dose 0.01 M i.c.v.): 73.3^a % | ED50 (mM) and 95% CI ([1]; i.c.v.): 4.0 (0.0-7.0) mM

CC(C)(C)C1CCC(C(=O)O)CC1 (stereo not shown) [4-tert-Butylcyclohexanecarboxylic acid]
Protection (%) ([2]; dose 0.001 M i.c.v.): 37.5% | Protection (%) ([2]; dose 0.01 M i.c.v.): 46.6^b % | Protection (%) ([2]; dose 0.1 M i.c.v.): 73.3^a % | ED50 (mM) and 95% CI ([2]; listed as 4-tert-Butylcyclo-hexanecarboxylic acid): 637 mM | ED50 (mM) and 95% CI ([2]; listed as 4-tert-Butylcyclohexane carboxylic acid): 29.0 (0.0-66.0) mM

CC/C=C\C/C=C\C/C=C\C/C=C\C/C=C\C/C=C\CCC(=O)O [DHA, Docosahexaenoic acid]
ED50 [3]: 0.00013 mM | inhibition of tonic seizures in the MES model [4]: not able to inhibit tonic seizures

O=C(O)Cc1ccccc1 [Phenylacetic acid]
Protection (%) ([1]; dose 0.0001 M i.c.v.): 0% | Protection (%) ([1]; dose 0.001 M i.c.v.): 20% | Protection (%) ([1]; dose 0.01 M i.c.v.): 30% | Protection (%) ([1]; dose 0.1 M i.c.v.): 57.5^a % | ED50 (mM) and 95% CI ([1]; i.c.v.): 78 mM | ED50 (mM) and 95% CI ([1]; i.c.v., listed as Phenylbutyric acid): 78.0 (46.0-156.0) mM

O=C(O)C1=C[C@@H](O)[C@@H](O)[C@H](O)C1 [Shikimic acid]
Protection (%) ([2]; dose 0.01 M i.c.v.): 0% | Protection (%) ([2]; dose 0.1 M i.c.v.): 20.0% | Protection (%) ([2]; dose 0.5 M i.c.v.): 43.3^b % | Protection (%) ([2]; dose 1 M i.c.v.): 70.0^a % | ED50 (mM) and 95% CI [2]: 637.0 (418.0-890.0) mM | ED50 (mM) and 95% CI ([2]; listed as shikimic acid): 29 mM
